Assay results taken from patent US8772292B2, “Process for the preparation of a medicament comprising vardenafil hydrochloride trihydrate” (Ratiopharm GmbH, priority 2007, dated 2014).
Where a name gives a salt, the structure may show the parent alone.

Assay: Raman spectra after processing steps (hydrate stability in tablets)
Type: physicochemical
Procedure: Vardenafil hydrochloride trihydrate and anhydrate can be identified and distinguished from one another e.g. by means of Raman spectroscopy.
Raman spectra were recorded after the processing steps of precompacting, subsequent mixing, pressing and coating (FIGS. 1 and 2). For this, the film was scratched off from the film-coated tablets beforehand. The Raman spectra of the pure vardenafil hydrochloride trihydrate and of the anhydrate are also shown for comparison.
In the relevant range of 1694-1702 cm^−1, the auxiliaries used in Example 1 had no influence on the vardenafil bands (measurement on a placebo tablet is not also shown).

## CCCc1nc(C)c2c(=O)[nH]c(-c3cc(S(=O)(=O)N4CCN(CC)CC4)ccc3OCC)nn12 [Vardenafil hydrochloride trihydrate, {2-ethoxy-5-[(4-ethyl-1-piperazinyl)sulfonyl]phenyl}-5-methyl-7-propylimidazo-[5,1-f][1,2,4]triazin-4(3H)one]
Example 4: coating at intake air temperature of 60-65° C.
  stability of the hydrate under the processing conditions: dehydrated
Examples 1 to 3: approx. 23° C., 33-35% rel. humidity, coating intake air 45° C.
  stability of the hydrate under the processing conditions: stable
